The results in this text go back to publication PMC4582818, “Identification of novel metabolic interactions controlling carbon flux from xylose to ethanol in natural and recombinant yeasts” (Biotechnology for Biofuels, 2015).

The target of data set [1] is T1, CtXR (Yamadazyma tenuis, UniProt O74237).
T1 construct: gene XYL1; xylose reductase of C. tenuis CBS4435; preparation described only in Additional file 3
T1 sequence (O74237 1-322): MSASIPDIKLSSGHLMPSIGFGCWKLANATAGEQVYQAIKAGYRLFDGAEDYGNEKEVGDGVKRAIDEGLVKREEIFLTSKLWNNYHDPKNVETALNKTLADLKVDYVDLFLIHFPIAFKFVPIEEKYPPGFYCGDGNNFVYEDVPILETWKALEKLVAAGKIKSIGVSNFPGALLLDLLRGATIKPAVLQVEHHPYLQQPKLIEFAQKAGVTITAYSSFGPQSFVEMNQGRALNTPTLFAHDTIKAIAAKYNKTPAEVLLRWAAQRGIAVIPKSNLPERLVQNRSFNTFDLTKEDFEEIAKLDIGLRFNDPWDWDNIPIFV
As to the kind of experiment: steady-state kinetics. Type of data set: biochemical. An excerpt: (§1) steady-state kinetics on CtXR

The next data set concerns the target T2, CtG6PDH (Yamadazyma tenuis, UniProt G3B8L7).
T2 construct: gene CANTEDRAFT_115211; native enzyme, probably in cell-free extract of CBS4435 (details only in Additional file 3)
T2 sequence (G3B8L7 1-502): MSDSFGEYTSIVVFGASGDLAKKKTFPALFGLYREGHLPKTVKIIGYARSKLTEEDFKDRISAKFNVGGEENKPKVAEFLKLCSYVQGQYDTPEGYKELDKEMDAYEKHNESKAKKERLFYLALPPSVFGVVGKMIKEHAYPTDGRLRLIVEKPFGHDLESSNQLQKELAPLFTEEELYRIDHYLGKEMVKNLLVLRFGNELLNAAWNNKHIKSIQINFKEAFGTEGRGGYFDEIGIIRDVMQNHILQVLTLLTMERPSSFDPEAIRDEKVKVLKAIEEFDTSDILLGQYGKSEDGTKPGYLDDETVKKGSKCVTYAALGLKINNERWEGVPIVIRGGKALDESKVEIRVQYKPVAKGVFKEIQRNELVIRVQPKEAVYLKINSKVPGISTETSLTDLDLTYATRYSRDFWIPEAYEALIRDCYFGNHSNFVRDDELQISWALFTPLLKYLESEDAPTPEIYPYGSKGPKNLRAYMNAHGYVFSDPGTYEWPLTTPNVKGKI
As to the kind of experiment: enzyme kinetics, product inhibition. Type of data set: cell-based. Conditions: competitive product inhibition; read-out: K i,NADPH. From the text: enzyme kinetics, product inhibition on CtG6PDH

Data set [2] has as its target T1, CtXR. The experiment in a line: ligand-binding analysis by fluorescence spectroscopy. Conditions: read-out: NADP(H) (R 2) / PP (R 5), UG (R 9), LG (R 10). From the text: ligand-binding analysis by fluorescence spectroscopy on CtXR
Substrate in data set [3]: NC(=O)C1=CN([C@@H]2O[C@H](COP(=O)(O)OP(=O)(O)OC[C@H]3O[C@@H](n4cnc5c(N)ncnc54)[C@H](O)[C@@H]3O)[C@@H](O)[C@H]2O)C=CC1
The experiment in a line: steady-state kinetics. Type of data set: biochemical, Yamadazyma tenuis. Conditions: xylose reduction; pH 7.5; 25.0 °C; varied: cofactor.
Description: as §1

Substrate in data set [4]: NC(=O)C1=CN([C@@H]2O[C@H](COP(=O)(O)OP(=O)(O)OC[C@H]3O[C@@H](n4cnc5c(N)ncnc54)[C@H](OP(=O)(O)O)[C@@H]3O)[C@@H](O)[C@H]2O)C=CC1
The experiment in a line: steady-state kinetics. Type of data set: biochemical, Yamadazyma tenuis. Conditions: xylose reduction; pH 7.5; 25.0 °C; varied: cofactor.
Description: as §1

Substrate in data set [5]: NC(=O)c1ccc[n+]([C@@H]2O[C@H](COP(=O)(O)OP(=O)(O)OC[C@H]3O[C@@H](n4cnc5c(N)ncnc54)[C@H](O)[C@@H]3O)[C@@H](O)[C@H]2O)c1
As to the kind of experiment: steady-state kinetics. Type of data set: biochemical, Yamadazyma tenuis. Conditions: xylitol oxidation; pH 7.5; 25.0 °C; varied: cofactor.
Description: as §1

Substrate in data set [6]: NC(=O)c1ccc[n+]([C@@H]2O[C@H](COP(=O)(O)OP(=O)(O)OC[C@H]3O[C@@H](n4cnc5c(N)ncnc54)[C@H](OP(=O)(O)O)[C@@H]3O)[C@@H](O)[C@H]2O)c1
As to the kind of experiment: steady-state kinetics. Conditions: xylitol oxidation; pH 7.5; 25.0 °C; varied: cofactor. Type of data set: biochemical, Yamadazyma tenuis.
Description: as §1

On to `NC(=O)C1=CN([C@@H]2O[C@H](COP(=O)(O)OP(=O)(O)OC[C@H]3O[C@@H](n4cnc5c(N)ncnc54)[C@H](O)[C@@H]3O)[C@@H](O)[C@H]2O)C=CC1` [NADH], for which the “NAD(H) (R 1)” value on CtXR [1] (dissociation constant of NADH in the rate equation, xylose reduction) is reported as 0.18 ± 0.04 mM.
Consider `NC(=O)C1=CN([C@@H]2O[C@H](COP(=O)(O)OP(=O)(O)OC[C@H]3O[C@@H](n4cnc5c(N)ncnc54)[C@H](OP(=O)(O)O)[C@@H]3O)[C@@H](O)[C@H]2O)C=CC1` [NADPH], for which, on CtG6PDH, the Ki was 200 µM.
Take `NC(=O)c1ccc[n+]([C@@H]2O[C@H](COP(=O)(O)OP(=O)(O)OC[C@H]3O[C@@H](n4cnc5c(N)ncnc54)[C@H](OP(=O)(O)O)[C@@H]3O)[C@@H](O)[C@H]2O)c1` [NADP^+]: on CtXR [2], the Kd is 5.9 ± 0.4 µM.
Consider `NC(=O)c1ccc[n+]([C@@H]2O[C@H](COP(=O)(O)OP(=O)(O)OC[C@H]3O[C@@H](n4cnc5c(N)ncnc54)[C@H](O)[C@@H]3O)[C@@H](O)[C@H]2O)c1` [NAD^+], for which the Ki on CtXR [1] (read-out: NAD(H) (R 1)) is 344 ± 30 µM.

B1: CtXR (Yamadazyma tenuis) (protein)
chain: T1 sequence (O74237 1-322)
notes: xylose reductase of C. tenuis CBS4435; preparation described only in Additional file 3
Broadly, the Km is the substrate concentration at which the rate is half of its maximum. On to B1, for which the Km in “steady-state kinetics [3]” was 40 ± 10 µM; in “steady-state kinetics [4]”, 5 ± 2 µM; in “steady-state kinetics [5]”, 19 ± 5 µM; in the data set “steady-state kinetics [6]” it was 8 ± 1 µM.
